The record followed here is patent publication US10544130B2, “Metallo-beta-lactamase inhibitors” (priority 2015, dated 2020).

Molecules are shown by their SMILES.

The subject of the data set is Pseudomonas aeruginosa PAO1 MB9798 (efflux+, IMP-1). Conditions: ratio MITC95 PA 9798/MITC95 PA 9799; imipenem at 2 μg/mL. Put shortly:
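Isogenic PAO1 pair (efflux+ MB9798, efflux− MB9799, both IMP-1) tested by microbroth MIC with fixed imipenem and/or ceftazidime, usually at CLSI breakpoint, plus fixed class A/C inhibitor against AmpC. MBL inhibitor titrated; concentration restoring susceptibility recorded and fold difference between strains taken as efflux extent.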
On to `Nc1nc2c(-c3ccc(S(=O)(=O)NC4CNC[C@H]4N)c(S(N)(=O)=O)c3-c3nn[nH]n3)cccc2[nH]1` (stereo in doubt) [Example 322, 4-(2-Amino-1H-benzo[d]imidazol-4-yl)-N1-((3S,4R)-4-aminopyrrolidin-3-yl)-3-(2H-tetrazol-5-yl)benzene-1,2-disulfonamide], for which the Efflux ratio came out at 0.83.
The figure for `NCCNS(=O)(=O)c1ccc(-c2cccc(C(=O)NC[C@@H](N)CO)c2N)c(-c2nn[nH]n2)c1S(N)(=O)=O` [Example 332, (R)-2-amino-N-(2-amino-3-hydroxypropyl)-4′-(N-(2-aminoethyl)sulfamoyl)-3′-sulfamoyl-2′-(2H-tetrazol-5-yl)-[1,1′-biphenyl]-3-carboxamide] is 1.00; for `NS(=O)(=O)c1c(S(=O)(=O)N[C@@H]2CCNC2)ccc(-c2cccc3cn[nH]c23)c1-c1nnn[nH]1` [Example 139, (R)-4-(1H-indazol-7-yl)-N1-(pyrrolidin-3-yl)-3-(1H-tetrazol-5-yl)benzene-1,2-disulfonamide] it is 1.00.
Turning to `Nc1nc2c(-c3ccc(S(N)(=O)=O)c(S(N)(=O)=O)c3-c3nn[nH]n3)cccc2s1` [Example 143, 4-(2-aminobenzo[d]thiazol-4-yl)-3-(2H-tetrazol-5-yl)benzene-1,2-disulfonamide], the Efflux ratio was 0.50.
The figure for `NS(=O)(=O)c1c(S(=O)(=O)N[C@@H]2CCNC2)ccc(-c2ccc3nonc3c2)c1-c1nnn[nH]1` [Example 133, (R)-4-(benzo[c][1,2,5]oxadiazol-5-yl)-N1-(pyrrolidin-3-yl)-3-(1H-tetrazol-5-yl)benzene-1,2-disulfonamide] is 8.00; for `Nc1nc2c(-c3ccc(S(=O)(=O)NC4C[C@@H]5CN[C@H]4C5)c(S(N)(=O)=O)c3-c3nnn[nH]3)cccc2s1.O=CO` (stereo partly drawn) [Example 119, 4-(2-aminobenzo[d]thiazol-4-yl)-N1-((1S,4R)-2-azabicyclo[2.2.1]heptan-6-yl)-3-(1H-tetrazol-5-yl)benzene-1,2-disulfonamide, formate salt] it is 0.50.
As for `Nc1nc2c(-c3ccc(S(=O)(=O)NC4CNC4)c(S(N)(=O)=O)c3-c3nn[nH]n3)cccc2s1` [Example 146, 4-(2-aminobenzo[d]thiazol-4-yl)-N1-(azetidin-3-yl)-3-(2H-tetrazol-5-yl)benzene-1,2-disulfonamide], the Efflux ratio is listed as 0.50.
With `Nc1nc2c(-c3ccc(S(=O)(=O)NCC4CCC(=O)N4)c(S(N)(=O)=O)c3-c3nnn[nH]3)cccc2s1` (stereo not shown) [Example 19, 4-(2-amino-1,3-benzothiazol-4-yl)-N1-[(5-oxopyrrolidin-2-yl)methyl]-3-(1H-tetrazol-5-yl)benzene-1,2-disulfonamide] the figure was 1.00.
With `Nc1nc2c(-c3ccc(S(=O)(=O)NC[C@@H](N)CO)c(S(N)(=O)=O)c3-c3nn[nH]n3)cccc2[nH]1` [Example 190, 4-(2-amino-1H-benzo[d]imidazol-4-yl)-N1-((R)-2-amino-3-hydroxypropyl)-3-(2H-tetrazol-5-yl)benzene-1,2-disulfonamide] the figure was 0.50; with `Nc1nc2c(-c3ccc(S(=O)(=O)N[C@H]4CCCNC4)c(S(N)(=O)=O)c3-c3nnn[nH]3)cccc2s1` [Example 67, 4-(2-amino-1,3-benzothiazol-4-yl)-N1-[(3S)-piperidin-3-yl]-3-(1H-tetrazol-5-yl)benzene-1,2-disulfonamide], 1.00; with `Nc1nc2c(-c3ccc(S(=O)(=O)N4CCNC(=O)C4)c(S(N)(=O)=O)c3-c3nnn[nH]3)cccc2s1` [Example 28, 3-(2-amino-1,3-benzothiazol-4-yl)-6-[(3-oxopiperazin-1-yl)sulfonyl]-2-(1H-tetrazol-5-yl)benzenesulfonamide], 4.00.
The figure for `Nc1nc(-c2cccc(-c3ccc(S(=O)(=O)N[C@@H]4CCNC4)c(S(N)(=O)=O)c3-c3nn[nH]n3)c2)n[nH]1` [Example 231, (R)-3′-(5-amino-1H-1,2,4-triazol-3-yl)-N4-(pyrrolidin-3-yl)-2-(2H-tetrazol-5-yl)-[1,1′-biphenyl]-3,4-disulfonamide] is 1.00.
In the case of `Nc1nc2c(-c3ccc(S(=O)(=O)NC4CCc5nccn5C4)c(S(N)(=O)=O)c3-c3nnn[nH]3)cccc2s1` (stereo not shown) [Example 35, 4-(2-amino-1,3-benzothiazol-4-yl)-N1-(5,6,7,8-tetrahydroimidazo[1,2-a]pyridin-6-yl)-3-(1H-tetrazol-5-yl)benzene-1,2-disulfonamide], the Efflux ratio is 2.00.
As for `CN1CC[C@@H](CNS(=O)(=O)c2ccc(-c3cccc4sc(N)nc34)c(-c3nnn[nH]3)c2S(N)(=O)=O)C1` [Example 76, 4-(2-amino-1,3-benzothiazol-4-yl)-N^1-{[(3R)-1-methylpyrrolidin-3-yl]methyl}-3-(1H-tetrazol-5-yl)benzene-1,2-disulfonamide], the Efflux ratio stood at 0.50.
For `NCc1nc2c(-c3ccc(S(=O)(=O)NC[C@@H](O)CN)c(S(N)(=O)=O)c3-c3nn[nH]n3)cccc2[nH]1` [Example 305, (S)—N1-(3-amino-2-hydroxypropyl)-4-(2-(aminomethyl)-1H-benzo[d]imidazole-4-yl)-3-(2H-tetrazol-5-yl)benzene-1,2-disulfonamide], the Efflux ratio was found to be 1.00.
With `NCCNS(=O)(=O)c1ccc(-c2cccc3cn[nH]c23)c(-c2nn[nH]n2)c1S(N)(=O)=O` [Example 9, N^1-(2-aminoethyl)-4-(1H-indazol-7-yl)-3-(2H-tetrazol-5-yl)benzene-1,2-disulfonamide] the figure was 0.50; with `Nc1nc2c(-c3ccc(S(=O)(=O)NC4CCS(=O)(=O)CC4)c(S(N)(=O)=O)c3-c3nnn[nH]3)cccc2s1` [Example 14, 4-(2-amino-1,3-benzothiazol-4-yl)-N1-(1,1-dioxidotetrahydro-2H-thiopyran-4-yl)-3-(1H-tetrazol-5-yl)benzene-1,2-disulfonamide], 1.00.
The figure for `C[N+]1(C)CC[C@H](NS(=O)(=O)c2ccc(-c3cccc4[nH]c(N)nc34)c(-c3nn[n-]n3)c2S(N)(=O)=O)C1` [Example 166, (S)-5-(6-(2-amino-1H-benzo[d]imidazol-4-yl)-3-(N-(1,1-dimethylpyrrolidin-1-ium-3-yl)sulfamoyl)-2-sulfamoylphenyl)tetrazol-2-ide] is 1.00; for `Nc1nc2c(-c3ccc(S(=O)(=O)N[C@@H](N)c4ccccn4)c(S(N)(=O)=O)c3-c3nnn[nH]3)cccc2s1.O=C(O)C(F)(F)F` [Example 99, (R)-(4-(2-aminobenzo[d]thiazol-4-yl)-2-sulfamoyl-3-(1H-tetrazol-5-yl)phenylsulfonamido) (pyridin-2-yl)methanaminium 2,2,2-trifluoroacetate] it is 8.00; for `NCCNS(=O)(=O)c1ccc(-c2cccc3oc(C(=O)O)nc23)c(-c2nn[nH]n2)c1S(N)(=O)=O` [Example 13, 4-(4-(N-(2-aminoethyl)sulfamoyl)-3-sulfamoyl-2-(2H-tetrazol-5-yl)phenyl)benzo oxazole-2-carboxylic acid] it is 2.00.
The figure for `CN1CCC(CNS(=O)(=O)c2ccc(-c3cccc4sc(N)nc34)c(-c3nnn[nH]3)c2S(N)(=O)=O)C1.O=C(O)C(F)(F)F` (stereo not shown) [Example 102, 3-((4-(2-aminobenzo[d]thiazol-4-yl)-2-sulfamoyl-3-(1H-tetrazol-5-yl)phenylsulfonamido)methyl)-1-methylpyrrolidin-1-ium 2,2,2-trifluoroacetate] is 0.50; for `NCCCNS(=O)(=O)c1ccc(-c2cccc3sc(N)nc23)c(-c2nnn[nH]2)c1S(N)(=O)=O.O=C(O)C(F)(F)F` [Example 90, 3-(4-(2-aminobenzo[d]thiazol-4-yl)-2-sulfamoyl-3-(1H-tetrazol-5-yl)phenylsulfonamido) propan-1-aminium 2,2,2-trifluoroacetate] it is 0.50; for `Nc1nc2c(-c3ccc(S(=O)(=O)N[C@@H]4CCNC4)c(S(N)(=O)=O)c3-c3nn[nH]n3)cccc2[nH]1` [Example 161, 4-(2-amino-1H-benzo[d]imidazol-4-yl)-N^1—((R)-pyrrolidin-3-yl)-3-(2H-tetrazol-5-yl)benzene-1,2-disulfonamide] it is 0.78.
As for `Nc1nc2c(-c3ccc(S(=O)(=O)N[C@H]4CCCNC4)c(S(N)(=O)=O)c3-c3nnn[nH]3)cccc2[nH]1` [Example 179, (S)-4-(2-amino-1H-benzo[d]imidazol-4-yl)-N^1-(piperidin-3-yl)-3-(1H-tetrazol-5-yl)benzene-1,2-disulfonamide], the Efflux ratio is on record as 2.00.
With `C[C@H](CN)NS(=O)(=O)c1ccc(-c2cccc3[nH]c(N)nc23)c(-c2nn[nH]n2)c1S(N)(=O)=O` [Example 187, 4-(2-amino-1H-benzo[d]imidazol-4-yl)-N^1—((R)-1-aminopropan-2-yl)-3-(2H-tetrazol-5-yl)benzene-1,2-disulfonamide] the figure was 0.50; with `Nc1nc2c(-c3ccc(S(=O)(=O)N[C@H]4CO[C@H]5[C@H]4OC[C@H]5O)c(S(N)(=O)=O)c3-c3nnn[nH]3)cccc2s1` [Example 50, 2-({[4-(2-amino-1,3-benzothiazol-4-yl)-2-sulfamoyl-3-(1H-tetrazol-5-yl)phenyl]sulfonyl}amino)-1,4:3,6-dianhydro-2-deoxy-D-allitol], 2.00; with `CO[C@H]1CNC[C@@H]1NS(=O)(=O)c1ccc(-c2cccc3sc(N)nc23)c(-c2nnn[nH]2)c1S(N)(=O)=O.O=C(O)C(F)(F)F` [Example 108, (3S,4S)-3-(4-(2-aminobenzo[d]thiazol-4-yl)-2-sulfamoyl-3-(1H-tetrazol-5-yl)phenylsulfonamido)-4-methoxypyrrolidin-1-ium 2,2,2-trifluoroacetate], 1.00.
With `CN(C1CCS(=O)(=O)C1)S(=O)(=O)c1ccc(-c2cccc3sc(N)nc23)c(-c2nnn[nH]2)c1S(N)(=O)=O` (stereo not shown) [Example 41, 4-(2-amino-1,3-benzothiazol-4-yl)-N^1-(1,1-dioxidotetrahydrothiophen-3-yl)-N~1~-methyl-3-(1H-tetrazol-5-yl)benzene-1,2-disulfonamide] the figure was 8.00.
